Test results from patent publication US20230218631A1 (priority 2020, published 2023).

System: EHMT2/G9A, H3K9me2
[1] = 4-week CIE vs Air, same animals, FIG. 1C

**Q.** Which results are given for CCO [ethanol]?
**A.** EHMT2/G9A in dorsal striatum [1]: no changes; H3K9me2 in dorsal striatum [1]: no changes; reduction of H3K9me2 levels in NAc (4-week CIE vs Air, FIG. 1B): ~40%; total histone H3 protein in NAc (4-week CIE vs Air, FIG. 1B): no changes; reduction in NAc EHMT2/G9A protein levels (4 weeks CIE vs Air, immunoblot, FIG. 1B): > 30%
